Measurements taken from patent US20070265231A1, “Hydrazide Compounds for Combating Animal Pests” (priority 2005, published 2007).

The compounds below were run on Bean Aphid (Aphis fabae) (assay: Bean aphid mortality test, nasturtium plants dipped in test solution). Settings: 300 ppm, after 3 days.
Assay type: in vivo
Source text: I.4 Bean Aphid (Aphis fabae)
Nasturtium plants grown in Metro mix in the 1st leaf-pair stage (variety ‘Mixed Jewel’) were infested with approximately 2-30 laboratory-reared aphids by placing infested cut plants on top of the test plants. The cut plants were removed after 24 hr. Each plant was dipped into the test solution to provide complete coverage of the foliage, stem, protruding seed surface and surrounding cube surface and allowed to dry in the fume hood. The treated plants were kept at about 25° C. with continuous fluorescent light. Aphid mortality is determined after 3 days.
`O=C(NNCC=Cc1ccc(Cl)s1)c1ccccn1` [E1] was tested, and the “mortality in comparison with untreated controls” value (“mortality in comparison” below) was 75%. With `CC(=Cc1cccc(F)c1)CNN(C)C(=O)c1ccccc1` [A93] the “mortality in comparison” value was 75%. `CC(=Cc1ccccc1)CNNC(=O)c1ccc(F)cc1F` [A141] was tested, and the “mortality in comparison” value was 75%. With `CC(=Cc1ccccc1F)CNNC(=O)c1ccc(F)cc1F` [A305] the “mortality in comparison” value was 75%. `CC(C)C(=Cc1ccco1)CNNC(=O)c1ccccn1` [E3] was tested, and the “mortality in comparison” value was 75%.

The compounds below were run on Orchid thrips (dichromothrips corbetti) (assay: Orchid thrips mortality test, floral-immersion technique). Settings: 96 h, orchid petals dipped, adult thrips, after 4 days, read-out: mortality in comparison with untreated controls.
Assay type: in vivo
Protocol: I.3 Orchid thrips (dichromothrips corbetti)
Dichromothrips corbetti adults used for bioassay were obtained from a colony maintained continuously under laboratory conditions. For testing purposes, the test compound was diluted to a concentration of 500 ppm (wt compound: vol diluent) in a 1:1 mixture of acetone:water, plus 0.01% Kinetic® surfactant.
Thrips potency of each compound was evaluated by using a floral-immersion technique. Plastic petri dishes were used as test arenas. All petals of individual, intact orchid flowers were dipped into treatment solution for approximately 3 seconds and allowed to dry for 2 hours. Treated flowers were placed into individual petri dishes along with 10-15 adult thrips. The petri dishes were then covered with lids. All test arenas were held under continuous light and a temperature of about 28° C. for duration of the assay. After 4 days, the numbers of live thrips were counted on each flower, and along inner walls of each petri dish. The level of thrips mortality was extrapolated from pre-treatment thrips numbers.
For `CC(=Cc1cccc(F)c1)CNNC(=O)c1ccccc1F` [A1, 2-Fluorobenzoic acid N′-[3-(3-fluorophenyl)-2-methyl-allyl]hydrazide], the mortality at 300 ppm was > 75%.
